From US20110130346A1, “PEPTIDE CONJUGATES FOR DELVERY OF BIOLOGICALLY ACTIVE COMPOUNDS” (ISIS INNOVATION LIMITED, priority 2008, published 2011)

Legend:
[1] = test system: exon and intron 23 of the dystrophin gene; experiment: Example 2: intramuscular injection into TA muscle, dystrophin-positive fibres by immunohistochemistry; assay type: in vivo, mdx mice
Text: Here we aim to evaluate the potential of PNA AOs as splice correcting therapeutic agents for DMD, by studying their activity under a range of conditions in mdx mice carrying a nonsense mutation in exon 23 of the dystrophin gene. PNAs and PNA-pepide conjugates were studied following intramuscular delivery into adult (6-8 week old) mdx tibialis anterior (TA) muscles or via systemic intravenous tail vein delivery in mdx mice unless otherwise stated.
(§1) For intramuscular studies the TA muscle of each experimental mdx mouse was injected with a […] dose of PNA and PNA-peptide conjugates with saline at a final concentration of 125 μg/ml. For systemic intravenous injections, Various amount of PNA or PNA-peptide conjugates in 80 μl saline buffer were injected into tail vein of mdx mice at the final dose of 25 mg/kg, 50 mg/kg and 100 mg/kg, respectively. The animals were killed at various time points after injection by CO2 inhalation and tissues were removed and snap-frozen in liquid nitrogen-cooled isopentane and stored at −80° C.
Sections of 8 μm were cut from at least two-thirds of the muscle length of TA, quadriceps, gastrocnemius, biceps, abdominal wall and diaphragm muscles and cardiac muscle at 100 μm intervals. The sections were then examined for dystrophin expression with a polyclonal antibody 2166 against the dystrophin carboxyl-terminal region. The maximum number of dystrophin-positive fibres in one section was counted using the Zeiss AxioVision fluorescence microscope. The intervening muscle sections were collected either for RT-PCR analysis and Western blot or as serial sections for immunohistochemistry. Polyclonal antibodies were detected by goat-anti-rabbit IgGs Alexa Fluro 594 (Molecular Probe, UK). […]

[2] = test system: exon and intron 23 of the dystrophin gene; experiment: Example 3: intramuscular injection of glucose-formulated AOs, dystrophin-positive myofibres by immunohistochemistry; assay type: in vivo; details: intramuscular into TA, 8 week old mdx mice, two weeks
Protocol: Here we study a novel delivery glucose formulation by evaluating it via local intramuscular injection into the mdx mouse tibialis anterior (TA) muscle. Initial experiments were performed in 6-8 week old mdx mice (referred to as 8 weeks) by treatment with a single dose of 5 ug of 2′OMePS AO formulated in 5% glucose. In a parallel control study, age-matched control mdx mice were treated with the same AO dose formulated in standard saline buffer.
For intramuscular studies the TA muscle of each experimental mdx mouse was injected with a 40 μl dose of PNA and PNA-peptide conjugates with saline at a final concentration of 125 μg/ml, and the contralateral muscle was injected with saline. […]
Sections of 8 μm were cut from at least two-thirds of the muscle length of TA, quadriceps, gastrocnemius, biceps, abdominal wall and diaphragm muscles and cardiac muscle at 100 μm intervals. […] The maximum number of dystrophin-positive fibres in one section was counted using the Zeiss AxioVision fluorescence microscope. […] Polyclonal antibodies were detected by goat-anti-rabbit IgGs Alexa Fluro 594 (Molecular Probe, UK). […] Polyclonal antibodies were detected by goat-anti-rabbit IgGs Alexa 594 and the monoclonal antibodies by goat-anti-mouse IgGs Alexa 594 (Molecular Probe, UK). […]

[3] = test system: exon and intron 23 of the dystrophin gene; experiment: Example 2: intramuscular injection, nested RT-PCR of exon skipping; assay type: in vivo, mdx mice; details: 5 ug intramuscular, 4 weeks after injection (peak)
Protocol: Total RNA was extracted from tested muscle tissues with Trizol (Invitrogen, UK) and 200 ng of RNA template was used for 20 μl RT-PCR with OneStep RT-PCR kit (Qiagen, UK). The primer sequences for the initial RT-PCR were Exon20Fo 5′-[…]-3′ and Ex26Ro 5′-[…]-3′ for amplification of messenger RNA from exons 20 to 26. The cycle conditions were 95° C. for 30 seconds, 55° C. for 1 minute and 72° C. for 2 minutes for 25 cycles. RT-PCR product (1 μl) was then used as the template for secondary PCR performed in […] with 0.5 U Taq DNA polymerase (Invitrogen, UK). The primer sequences for the second round were Ex20Fi 5′-[…]-3′ and Ex24Ri 5′-[…]-3. The cycle conditions were 95° C. for 1 minute, 57° C. for 1 minute, and 72° C. for 2 min for 25 cycles. The products were examined by electrophoresis on a 2% agarose gel.
as §1

[4] = Example 2: serum creatine kinase and AST/ALT after systemic injection; assay type: in vivo, mdx mice; details: intravenous 25, 50 and 100 mg/kg
Text: To develop AO splice correction therapy for DMD it is essential to establish effective systemic dystrophin correction since DMD is a systemic disease affecting all skeletal muscles, including the diaphragm, and cardiac muscle. Other AO chemistries, including 2′OMePS and PMO chemistries, have been reported to yield variable dystrophin splice correction following intravenous systemic delivery in mdx mice, with high systemic doses being required to detect appreciable efficacy. Here we wished to evaluate the potential of neutral PNA AOs for systemic splice correction in body-wide muscles, and initially evaluated a dose-response using three intravenous single PNA doses of 25, 50 and 100 mg/kg administered to 6 week old mdx mice via tail vein injections. Dystrophin expression was studied by immunostaining of muscle tissue sections from various peripheral muscles (including quadriceps, gastrocnemius, biceps, abdominal wall, diaphragm) and heart muscle three weeks after AO administration (FIG. 7A). […] Measures of phenotypic correction, including serum biochemical measurements of creatine kinase and AST/ALT enzyme levels were negative (FIGS. 7C and D).
Serum and plasma were taken from the mouse jugular vein immediately after the killing with CO2 inhalation. […]

5′-ggccaaaccteggcttacct-3′ [PNA]
number of dystrophin-positive fibres ([1]; 12-month old mdx mice, 5 ug intramuscular into TA, two weeks): 388±24 | persistence of splice correction effect ([1]; two month old mdx mice, 5 ug intramuscular): greater than 20 weeks | number of dystrophin-positive fibres ([1]; two month old mdx mice, 5 ug intramuscular, 8 week time point (peak)): greater than 650 | dystrophin-positive myofibres, 5% glucose formulation compared with saline formulation [2]: significant improvement | targeted dystrophin transcripts showing splice correction (RT-PCR) [3]: about 50% | phenotypic correction: serum creatine kinase and AST/ALT enzyme levels [4]: negative
